The target in one series is T1, recombinant human WRN (Homo sapiens, UniProt Q14191).
T1 construct: purchased BPS 101264
Description: Inhibition of WRN enzyme activity (ATPase), ADP-Glo Kinase Assay. The class given is biochemical. To be noted: WRN protein 5 nM, Flap 0.1 nM, ATP 30 µM; read-out: IC50. In a few lines: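 Recombinant human WRN (5 nM) was preincubated with compound (1000–0.004 nM) for 15 min at room temperature. Flap26 5'-flap DNA (0.1 nM) and 30 µM ATP were then added for 10 min in Tris pH 7.5, MgCl2, NaCl, BSA, Pluronic buffer. ADP was detected by ADP-Glo luminescence, and IC50 was obtained by nonlinear regression versus a 0.1% DMSO control.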

A short description of series [1]: Metabolic stability in human liver microsomes. The class given is in vitro ADME. To be noted: human liver microsomes 0.5 mg mL^-1, NADPH 1 mM, 0-60 min; read-out: Liver microsomal stability t1/2 (min) Human. The protocol: (§1) The purpose of this study was to investigate the metabolic stability of the compounds of the present disclosure in human and dog liver microsomes.
(§2) The compounds were co-incubated with human (or dog) liver microsomes, and the reaction was initiated by adding coenzyme NADPH (1 mM). At 0, 5, 15, 30, and 60 minutes, 60 µL of incubation solution was removed, and 180 µL of acetonitrile containing internal standard (clopidogrel) was added to quench the reaction, the mixture was shaken for 10 seconds, centrifuged at 10000 rpm for 10 minutes, and the supernatant was taken for analysis by LC-MS/MS. The in vitro intrinsic clearance was calculated based on the elimination half-life of the test compound in the incubation system. Midazolam was used as an internal reference compound, with two parallel incubations for each. Incubation conditions are summarized in Table 6 below: Table 6 Incubation conditions for the example compounds of the present disclosure
(§3) The ratio of the peak area of analyte to internal standard (Aanalyte/AIS) was obtained from the instrument, and the remaining percentage (%Control) was calculated from the ratio of Aanalyte/AIS in non-zero time point samples to zero time samples. Ln (%Control) was plotted against incubation time and linearly fitted. The test compound clearance constant (k, min^-1) and clearance half-life (T1/2, min) were calculated using the following equations. k = −slope [formula] T1/2 = 0.693/k. [formula]
On the technique in general: Microsomes from liver hold many membrane-bound enzymes, among them those of drug oxidation.

A short description of series [2]: Metabolic stability in dog liver microsomes. Conditions: dog liver microsomes 0.5 mg mL^-1, NADPH 1 mM, 0-60 min; read-out: Liver microsomal stability t1/2 (min) Dog. The class given is in vitro ADME. On the procedure:
as §1, §2, §3

pIC50: −log10 of the molar value.

T1 sequence (Q14191 whole entry): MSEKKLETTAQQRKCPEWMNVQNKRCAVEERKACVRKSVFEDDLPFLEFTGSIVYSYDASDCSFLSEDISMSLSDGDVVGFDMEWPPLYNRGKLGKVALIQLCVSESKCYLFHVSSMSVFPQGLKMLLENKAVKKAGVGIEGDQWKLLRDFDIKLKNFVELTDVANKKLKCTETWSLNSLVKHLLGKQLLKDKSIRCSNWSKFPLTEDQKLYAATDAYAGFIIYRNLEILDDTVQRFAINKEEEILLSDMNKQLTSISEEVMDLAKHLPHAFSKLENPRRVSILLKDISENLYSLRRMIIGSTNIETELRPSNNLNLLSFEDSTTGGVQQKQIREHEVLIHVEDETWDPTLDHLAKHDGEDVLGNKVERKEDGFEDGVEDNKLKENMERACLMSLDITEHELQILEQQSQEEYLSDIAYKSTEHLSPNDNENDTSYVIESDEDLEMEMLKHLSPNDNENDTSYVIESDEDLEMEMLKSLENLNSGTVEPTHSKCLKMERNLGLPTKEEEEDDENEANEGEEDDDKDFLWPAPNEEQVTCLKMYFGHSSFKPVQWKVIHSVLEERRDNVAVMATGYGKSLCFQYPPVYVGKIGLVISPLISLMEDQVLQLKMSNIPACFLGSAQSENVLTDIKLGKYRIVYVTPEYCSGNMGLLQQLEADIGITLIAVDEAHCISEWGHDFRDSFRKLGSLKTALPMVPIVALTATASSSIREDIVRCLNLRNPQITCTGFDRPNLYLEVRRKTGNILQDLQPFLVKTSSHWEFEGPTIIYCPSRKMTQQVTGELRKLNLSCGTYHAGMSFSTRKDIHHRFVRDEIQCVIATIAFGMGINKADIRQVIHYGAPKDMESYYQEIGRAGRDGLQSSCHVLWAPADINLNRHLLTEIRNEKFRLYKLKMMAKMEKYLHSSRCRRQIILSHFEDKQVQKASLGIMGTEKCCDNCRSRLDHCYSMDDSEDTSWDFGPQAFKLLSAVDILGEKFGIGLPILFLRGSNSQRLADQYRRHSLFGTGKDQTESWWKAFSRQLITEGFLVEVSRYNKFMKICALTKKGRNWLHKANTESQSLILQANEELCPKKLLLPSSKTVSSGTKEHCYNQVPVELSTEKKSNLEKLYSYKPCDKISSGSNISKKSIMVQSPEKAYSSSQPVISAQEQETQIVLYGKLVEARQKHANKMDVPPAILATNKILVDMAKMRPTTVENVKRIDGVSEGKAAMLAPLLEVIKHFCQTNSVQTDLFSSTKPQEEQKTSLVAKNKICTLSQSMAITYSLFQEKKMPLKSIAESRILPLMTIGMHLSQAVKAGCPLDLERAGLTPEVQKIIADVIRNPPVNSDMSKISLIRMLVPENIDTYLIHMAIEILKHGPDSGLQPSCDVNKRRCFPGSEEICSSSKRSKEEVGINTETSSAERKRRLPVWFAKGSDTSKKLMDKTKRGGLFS

As to `CCc1c(N2CCN(C(=O)c3ncnc(C)c3O)CC2)c(=O)n2nc(-c3cc4ccccc4s3)nc2n1CC(=O)Nc1ccc(C(F)(F)F)cc1Cl` [Example 80, 2-(2-(benzo[b]thiophen-2-yl)-5-ethyl-6-(4-(5-hydroxy-6-methylpyrimidine-4-carbonyl)piperazin-1-yl)-7-oxo-[1,2,4]triazolo[1,5-a]pyrimidin-4(7H)-yl)-N-(2-chloro-4-(trifluoromethyl)phenyl)acet amide], the pIC50 at recombinant human WRN is 7.00 to 9.00. Moreover, the results for the half-life in series [1] and in series [2] were 1300 min and 637 min, respectively.

As usually defined, the pIC50 is −log10 of the IC50, conventionally taken in molar units.

The values above are taken from patent publication EP4800015A1, “AZABICYCLO DERIVATIVE AND PREPARATION METHOD THEREFOR, AND USE” (Zhejiang Hisun Pharmaceutical Co., Ltd., priority 2023, dated 2025).
